The assay addresses cytoplasmic dynein 1 (Sus scrofa, UniProt A0A287B9W3). In words: microtubule-stimulated ATPase assay. The assay is classed as biochemical.

Experimental findings from PMC8543760 (Cell chemical biology, 2018) are described below.

Broadly, the IC50 is the concentration needed to halve the response being measured. High values mean lower potency, low ones higher potency.

SMILES strings stand for the structures.

`N#CC(=C(O)c1ccc(Cl)cc1Cl)c1nc2ccccc2c(=O)[nH]1` [Ciliobrevin A] displayed a half-inhibitory concentration (IC50) of around 84 µM.
